The assay addresses T1, Recombinant human p70S6K kinase (Homo sapiens, UniProt P23443).
T1 construct: purchased ThermoFisher Scientific PV3815
The assay is described as follows: S6K Enzymatic Inhibition Assay (HotSpot kinase assay; called S6K binding assay in Table 2). Conditions: IC50 class. Format: biochemical. Here is the method:
Enzymatic activity was determined using a commercial HotSpot kinase assay. Recombinant human p70S6K kinase was purchased from ThermoFisher Scientific (cat #PV3815). The substrate S6K/RSK2 peptide 2 was synthesized at Genscript [Piscataway, NJ]. In brief, the substrate was prepared in the reaction buffer [20 mM Hepes (pH 7.5), 10 mM MgCl2, 1 mM EGTA, 0.02% Brij35, 0.02 mg/mL BSA, 0.1 mM Na3VO4, 2 mM DTT, 1% DMSO]. Testing compounds were dissolved in 100% DMSO and a serial dilution was conducted in DMSO. The kinase at final concentration of 3 nM was added into the substrate solution and gently mixed. Test compounds were delivered at the appropriate concentrations into the kinase reaction mixture by Echo550, and incubated for 20 minutes at room temperature. ^33P-ATP (Specific activity 10 μCi/μL) was added into the reaction mixture to initiate the reaction. Assay plates were incubated for 2 hours at room temperature. The radioactivity was detected by filter-binding method. Kinase activity data is expressed as the percent remaining kinase activity in test samples compared to vehicle (DMSO) reactions. IC50 curves were plotted and IC50 values were calculated using the GraphPad Prism 4 program based on a sigmoidal dose-response equation.
T1 sequence (P23443 whole entry): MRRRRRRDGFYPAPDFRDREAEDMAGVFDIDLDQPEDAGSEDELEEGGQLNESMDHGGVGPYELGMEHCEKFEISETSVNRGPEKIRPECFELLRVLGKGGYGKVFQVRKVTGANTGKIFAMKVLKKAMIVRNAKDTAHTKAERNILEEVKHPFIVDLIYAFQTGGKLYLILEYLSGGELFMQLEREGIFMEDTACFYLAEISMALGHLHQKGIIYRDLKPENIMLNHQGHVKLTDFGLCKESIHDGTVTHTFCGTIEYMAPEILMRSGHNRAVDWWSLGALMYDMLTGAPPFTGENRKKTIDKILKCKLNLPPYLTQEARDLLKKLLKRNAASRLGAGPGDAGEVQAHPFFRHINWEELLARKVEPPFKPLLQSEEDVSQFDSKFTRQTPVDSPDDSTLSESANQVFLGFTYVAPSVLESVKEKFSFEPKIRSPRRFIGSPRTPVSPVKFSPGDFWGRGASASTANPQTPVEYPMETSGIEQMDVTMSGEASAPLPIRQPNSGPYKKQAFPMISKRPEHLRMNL
In the case of `Nc1ncnc(-c2cnn(Cc3ccc(C(F)(F)F)cc3)c2)c1-c1ccc2c(c1)OC(F)(F)O2` [Example 35, 5-(2,2-Difluoro-2H-1,3-benzodioxol-5-yl)-6-(1-{[p-(trifluoromethyl)phenyl]methyl}-1H-pyrazol-4-yl)-4-pyrimidinylamine], the IC50 (as a rule, the concentration that inhibits the measured activity by half) was in the range of 500 to 10000 nM.

Consider `Nc1cc(-c2cnn(Cc3ccc(C(F)(F)F)cc3)c2)ccn1` [Example 36, 4-(1-{[p-(Trifluoromethyl)phenyl]methyl}-1H-pyrazol-4-yl)-2-pyridylamine], for which the IC50 fell in the range of 500 to 10000 nM.

As to `Nc1cc(-c2cnn(Cc3ccc(C(F)(F)F)cc3)c2)c(Cl)cn1` [Example 37, 5-Chloro-4-(1-{[p-(trifluoromethyl)phenyl]methyl}-1H-pyrazol-4-yl)-2-pyridylamine], the IC50 is 500 to 10000 nM. The figure for `COc1ccc(-c2c(-c3cnn(Cc4ccc(C(F)(F)F)cc4)c3)ccnc2N)cc1` [Example 38, 3-(p-Methoxyphenyl)-4-(1-{[p-(trifluoromethyl)phenyl]methyl}-1H-pyrazol-4-yl)-2-pyridylamine] is less than 50 nM. With `Nc1nccc(-c2cnn(Cc3ccc(C(F)(F)F)cc3)c2)c1-c1ccc(Cl)cc1` [Example 39, 3-(p-Chlorophenyl)-4-(1-{[p-(trifluoromethyl)phenyl]methyl}-1H-pyrazol-4-yl)-2-pyridylamine], the IC50 is less than 50 nM.

The values above are taken from US12234224B2, “Pyrimidine and pyridine amine compounds and usage thereof in disease treatment” (Epigen Biosciences, Inc., priority 2021, dated 2025).
